Test results as given in PubChem BioAssay AID1963851 (Molecular Pharmacology Branch, DTP, NCI, 2024).
pIC50: −log10 of the molar value.

Tested on: 188146-221-R-J1-PDC complex spheroid viability
Assay: Anticancer human tumor 188146-221-R-J1-PDC patient-derived colon adenocarcinoma cell line growth inhibition [POLQ]
Details: for pIC50: curve of first compound; for viability, T/C: stronger effect = lower value
Procedure, shortened: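 Growth inhibition in 3D: complex spheroids (tumor PDC, HUVEC, MSC) treated with POLQ inhibitor combinations; where Cmax unknown, highest tested concentration 10 microM, except SN-38 at 1 microM.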

[1] = second compound 0.0316 µM, first compound 0.0316 µM
[2] = second compound 0.0316 µM, first compound 0.1 µM
[3] = second compound 0.0316 µM, first compound 0.316 µM
[4] = second compound 0.0316 µM, first compound 1 µM
[5] = second compound 0.1 µM, first compound 0.0316 µM
[6] = second compound 0.1 µM, first compound 0.1 µM
[7] = second compound 0.1 µM, first compound 0.316 µM
[8] = second compound 0.1 µM, first compound 1 µM
[9] = second compound 0.316 µM, first compound 0.0316 µM
[10] = second compound 0.316 µM, first compound 0.1 µM
[11] = second compound 0.316 µM, first compound 0.316 µM
[12] = second compound 0.316 µM, first compound 1 µM
[13] = second compound 1 µM, first compound 0.0316 µM
[14] = second compound 1 µM, first compound 0.1 µM
[15] = second compound 1 µM, first compound 0.316 µM
[16] = second compound 1 µM, first compound 1 µM
[17] = second compound 3.16 µM, first compound 0.0316 µM
[18] = second compound 3.16 µM, first compound 0.1 µM
[19] = second compound 3.16 µM, first compound 0.316 µM
[20] = second compound 3.16 µM, first compound 1 µM
[21] = second compound 10 µM, first compound 0.0316 µM
[22] = second compound 10 µM, first compound 0.1 µM
[23] = second compound 10 µM, first compound 0.316 µM
[24] = second compound 10 µM, first compound 1 µM
[25] = second compound 0.0316 µM, first compound 3.16 µM
[26] = second compound 0.0316 µM, first compound 10 µM
[27] = second compound 0.1 µM, first compound 3.16 µM
[28] = second compound 0.1 µM, first compound 10 µM
[29] = second compound 0.316 µM, first compound 3.16 µM
[30] = second compound 0.316 µM, first compound 10 µM
[31] = second compound 1 µM, first compound 3.16 µM
[32] = second compound 1 µM, first compound 10 µM
[33] = second compound 3.16 µM, first compound 3.16 µM
[34] = second compound 3.16 µM, first compound 10 µM
[35] = second compound 10 µM, first compound 3.16 µM
[36] = second compound 10 µM, first compound 10 µM
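Note: spheroids exposed to compounds for seven days.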
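Throughout, for viability, T/C: 100% = DMSO vehicle control viability.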

## C=CCn1c(=O)c2cnc(Nc3ccc(N4CCN(C)CC4)cc3)nc2n1-c1cccc(C(C)(C)O)n1 + Cc1cccc(N(C)C(=O)C2C(O)CCN2c2nc(C)cc(C(F)(F)F)c2C#N)c1
Second compound 0.0316 µM
  pIC50: < 6.00
Second compound 0.1 µM
  pIC50: < 6.00
Second compound 0.316 µM
  pIC50: < 6.00
Second compound 1 µM
  pIC50: < 6.00
Second compound 3.16 µM
  pIC50: < 6.00
Second compound 10 µM
  pIC50: 6.12
Second compound 0.0316 µM, first compound 0.00316 µM
  viability, T/C: 109%
Second compound 0.0316 µM, first compound 0.01 µM
  viability, T/C: 113%
[1]
  viability, T/C: 104%
[2]
  viability, T/C: 105%
[3]
  viability, T/C: 103%
[4]
  viability, T/C: 60.9%
Second compound 0.1 µM, first compound 0.00316 µM
  viability, T/C: 112%
Second compound 0.1 µM, first compound 0.01 µM
  viability, T/C: 109%
[5]
  viability, T/C: 119%
[6]
  viability, T/C: 114%
[7]
  viability, T/C: 115%
[8]
  viability, T/C: 51.5%
Second compound 0.316 µM, first compound 0.00316 µM
  viability, T/C: 92.3%
Second compound 0.316 µM, first compound 0.01 µM
  viability, T/C: 88.7%
[9]
  viability, T/C: 105%
[10]
  viability, T/C: 107%
[11]
  viability, T/C: 110%
[12]
  viability, T/C: 59.5%
Second compound 1 µM, first compound 0.00316 µM
  viability, T/C: 109%
Second compound 1 µM, first compound 0.01 µM
  viability, T/C: 98.5%
[13]
  viability, T/C: 105%
[14]
  viability, T/C: 99%
[15]
  viability, T/C: 112%
[16]
  viability, T/C: 57.8%
Second compound 3.16 µM, first compound 0.00316 µM
  viability, T/C: 90.6%
Second compound 3.16 µM, first compound 0.01 µM
  viability, T/C: 101%
[17]
  viability, T/C: 114%
[18]
  viability, T/C: 102%
[19]
  viability, T/C: 89.7%
[20]
  viability, T/C: 56.9%
Second compound 10 µM, first compound 0.00316 µM
  viability, T/C: 90.7%
Second compound 10 µM, first compound 0.01 µM
  viability, T/C: 92.2%
[21]
  viability, T/C: 104%
[22]
  viability, T/C: 90.4%
[23]
  viability, T/C: 97%
[24]
  viability, T/C: 35.4%

## CNCc1ccc(-c2[nH]c3cc(F)cc4c3c2CCNC4=O)cc1 + Cc1cccc(N(C)C(=O)C2C(O)CCN2c2nc(C)cc(C(F)(F)F)c2C#N)c1
Second compound 0.0316 µM
  pIC50: < 5.00
Second compound 0.1 µM
  pIC50: < 5.00
Second compound 0.316 µM
  pIC50: < 5.00
Second compound 1 µM
  pIC50: < 5.00
Second compound 3.16 µM
  pIC50: < 5.00
Second compound 10 µM
  pIC50: < 5.00
[1]
  viability, T/C: 98.6%
[2]
  viability, T/C: 103%
[3]
  viability, T/C: 101%
[4]
  viability, T/C: 97.3%
[25]
  viability, T/C: 114%
[26]
  viability, T/C: 105%
[5]
  viability, T/C: 108%
[6]
  viability, T/C: 98.6%
[7]
  viability, T/C: 102%
[8]
  viability, T/C: 104%
[27]
  viability, T/C: 108%
[28]
  viability, T/C: 112%
[9]
  viability, T/C: 112%
[10]
  viability, T/C: 105%
[11]
  viability, T/C: 106%
[12]
  viability, T/C: 103%
[29]
  viability, T/C: 106%
[30]
  viability, T/C: 108%
[13]
  viability, T/C: 109%
[14]
  viability, T/C: 103%
[15]
  viability, T/C: 97.7%
[16]
  viability, T/C: 109%
[31]
  viability, T/C: 100%
[32]
  viability, T/C: 110%
[17]
  viability, T/C: 112%
[18]
  viability, T/C: 112%
[19]
  viability, T/C: 95.1%
[20]
  viability, T/C: 84.1%
[33]
  viability, T/C: 112%
[34]
  viability, T/C: 110%
[21]
  viability, T/C: 99.4%
[22]
  viability, T/C: 83.2%
[23]
  viability, T/C: 100%
[24]
  viability, T/C: 93.8%
[35]
  viability, T/C: 106%
[36]
  viability, T/C: 101%

## COc1cc(C2c3cc4c(cc3C(OC3OC5COC(C)OC5C(O)C3O)C3COC(=O)C23)OCO4)cc(OC)c1O (stereo unspecified) + Cc1cccc(N(C)C(=O)C2C(O)CCN2c2nc(C)cc(C(F)(F)F)c2C#N)c1
Second compound 0.0316 µM
  pIC50: 6.05
Second compound 0.1 µM
  pIC50: 6.10
Second compound 0.316 µM
  pIC50: 6.14
Second compound 1 µM
  pIC50: 6.13
Second compound 3.16 µM
  pIC50: 6.18
Second compound 10 µM
  pIC50: 6.32
[1]
  viability, T/C: 115%
[2]
  viability, T/C: 99.9%
[3]
  viability, T/C: 77.3%
[4]
  viability, T/C: 47.6%
[25]
  viability, T/C: 27.5%
[26]
  viability, T/C: 25.9%
[5]
  viability, T/C: 111%
[6]
  viability, T/C: 99.2%
[7]
  viability, T/C: 77.8%
[8]
  viability, T/C: 43.5%
[27]
  viability, T/C: 25.1%
[28]
  viability, T/C: 28.3%
[9]
  viability, T/C: 108%
[10]
  viability, T/C: 102%
[11]
  viability, T/C: 71.7%
[12]
  viability, T/C: 43%
[29]
  viability, T/C: 26.4%
[30]
  viability, T/C: 28.7%
[13]
  viability, T/C: 108%
[14]
  viability, T/C: 104%
[15]
  viability, T/C: 70.5%
[16]
  viability, T/C: 45.6%
[31]
  viability, T/C: 27.2%
[32]
  viability, T/C: 30.8%
[17]
  viability, T/C: 101%
[18]
  viability, T/C: 103%
[19]
  viability, T/C: 70.1%
[20]
  viability, T/C: 40.6%
[33]
  viability, T/C: 29.4%
[34]
  viability, T/C: 31.1%
[21]
  viability, T/C: 93.1%
[22]
  viability, T/C: 79.6%
[23]
  viability, T/C: 61.2%
[24]
  viability, T/C: 32.4%
[35]
  viability, T/C: 29.1%
[36]
  viability, T/C: 32.8%
